We go through ten compounds from EP0240854A1, “Bis-tert-butylamino-substituted 1,3,5-triazine derivatives, process for their preparation, medicaments containing these compounds, and their use” (HOECHST AKTIENGESELLSCHAFT, priority 1986, dated 1987).

In assay [1] the test system is Pentetrazol-induzierte Krämpfe. Put plainly: Antagonism against pentetrazol-induced convulsions (Swinyard). The class given is in vivo, Maus. As to conditions: p.o., pentetrazol 125 mg/kg s.c. 1 h after test substance, tonic extensor convulsions; for ED50: Mus musculus, po, 1 h, read-out: Ptz Maus ED 50. An excerpt:
(§1) Die Krampf-verhindernde (antikonvulsive) Wirkung der erfindungsgemäßen Verbindungen wurde an Mäusen gegen Pentetrazol- und gegen Elektroschock- induzierte Krämpfe in der Anordnung von SWINYARD geprüft.
1. Antagonismus gegen Pentetrazol-induzierte Krämpfe (Maus)
Methode (E.A.SWINYARD, J.Pharmacol.Exp.Ther. 106, (1952), 319-330):
Gruppen von 10 männlichen Mäusen (Stamm: NMRI, SPF-71, KF) im Gewicht von 18-22 g werden in diesem Versuch verwendet. Die zu prüfenden Substanzen werden in einer 1 %-igen Aufschwemmung von ®Tylose (Methyl-hydroxy-ethyl-cellulose) in Wasser suspendiert und per Schlundsonde in einem Volumen von 10 ml/kg Körpergewicht oral verabreicht. Die Kontrollgruppe erhält ein entsprechendes Volumen Tylosesuspension ohne Prüfsubstanz. Pentetrazol (Cardiazol®) wird in wässriger Lösung in einer Dosis von 125 mg/kg Körpergewicht 1 Stunde nach Verabreichung der Prüfsubstanzen subcutan injiziert. Diese Dosis erzeugt bei 90-100 % der Kontrolltiere innerhalb der Beobachtungszeit von 60 Minuten nach der Injektion tonische Extensorkrämpfe der hinteren Extremitä-ten. Als Schutzwirkung der Prüfsubstanz wird gewertet, wenn die Anzahl der krampfenden Tiere gegenüber der Kontrollgruppe vermindert ist. Bei vorhandener Schutzwirkung der Prüfsubstanz wird eine mittlere effektive Dosis (ED-50) grafisch (Litchfield and Wilcoxon) oder rechnerisch (Probitanalyse) ermittelt.

Assay [2] deals with Elektroschock-induzierte Krämpfe. Put plainly: Antagonism against electroshock-induced convulsions (Swinyard). It counts as in vivo. As to conditions: Mus musculus, po, electroshock via corneal electrodes 1 h after test substance, tonic extensor convulsions; read-out: ECS Maus ED 50.
Excerpt: as §1
2. Antagonismus gegen Elektroschock-induzierte Krämpfe (Maus).
Methode (E.A.SWINYARD, In: Experimental Models of Epilepsy, Raven Press, New York, 1972, p. 433-458):
Gruppen von 6 männlichen Mäusen (Stamm: NMRI, SPF-71, KF) im Gewicht von 18-22 g werden in diesem Versuch verwendet. Die zu prüfenden Substanzen werden in einer 1 %igen Aufschwemmung von Tylose (Methyl-hydroxy-ethyl-cellulose) in Wasser suspendiert und per Schlundsonde in einem Volumen von 10 ml/kg Körpergewicht oral verabreicht. Die Kontrollgruppe erhält ein entsprechendes Volumen Tylosesuspension ohne Prüfsubstanz. Eine Stunde nach Prüfsubstanzgabe wird den Tieren über Cornea-Elektroden ein Elektroschock verabreicht (Stromstärke 12-22 mA, Dauer 0,2 sec, 50 Hz), nachdem vorher an einer zweiten Kontrollgruppe die Stromstärke ermittelt worden war, die bei 100 % der Tiere eine tonischen Extensorkrampf der hinteren Extremitäten hervorruft. Die Anzahl der durch die Prüfsubstanz vor einem Extensorkrampf geschützten Tiere dient als Mass der antikonvulsiven Wirkung in diesem Test. Bei vorhandener Schutzwirkung der Prüfsubstanz wird eine mittlere effektive Dosis (ED-50) grafisch (Litchfield and Wilcoxon) oder rechnerisch (Probitanalyse) ermittelt.

The subject of assay [3] is Wistar Ratten. The experiment in a line: Lick-shock-conflict test (Vogel). It counts as in vivo, Ratte. To be noted: Rattus norvegicus, po; for minimal effective dose: lowest dose with significant increase of lickings in the shock phase, read-out: Lick-Sh. Ratte MED; for change in vivo at 10 mg/kg: 10 mg/kg p.o.; for change in vivo at 10 mg/kg / change in vivo at 30 mg/kg: increase versus control group, read-out: Lick-Sh. Ratte prozentuale Zunahme der angenommenen Belohnungen (Wasser); for change in vivo at 30 mg/kg: 30 mg/kg p.o. The source says:
(§2) Die Angst-lösende (anxiolytische Wirkung) der erfindungsgemäßen Verbindungen wurde im "Lick-shock-conflict- Test" nach VOGEl und im "Geller-Seifter-Konflikt-Test" nach GELLER und SEIFTER an WISTAR-Ratten geprüft.
3. Lick-shock-conflict-Test
Methode (VOGEL, J.R., Psychopharmacologia 21, (1971), 1-7
Männliche Wistar Ratten aus eigener Aufzucht (SPF Hattersheim) im Gewicht zwischen 90 und 120 g werden verwendet. Den Tieren wird für 48 Stunden vor Testbeginn das Trinkwasser entzogen. Zum Test werden die Tiere in eine Plastikbox (14x12x28 cm, BxTxH) gesetzt, die mit einer Wasserflasche mit Metall-Trinkrohr ausgestattet ist und die außerdem erlaubt, über eine elektronische Schaltung die Anzahl der Kontakte der Zunge des Tieres mit dem Trinkrohr zu messen. Der Boden der Box besteht aus Metallstäben, die durch die Steuerungselektronik unter Strom gesetzt werden können. Die Tiere haben nach dem Einsetzen in die Box 5 min. Zeit, um das Trinkrohr zu finden und 50-mal daran zu lekken. Tiere, die das Trinkrohr innerhalb dieser Zeit nicht gefunden haben, werden für den Versuch nicht verwendet. Nach diesen 50 Leckvorgängen (lickings) werden Trinkrohr und Bodenstäbe für jeweils 5 sec unter Strom gesetzt (Gleichstrom 300 µA) und dann für weitere 5 sec. wieder freigegeben. Diese Folge wird alternierend für eine Zeit von 5 min. weitergeführt, wobei die Zahl der Trinkrohr-Kontakte des Tieres während der Reizstrom- und der reizstromfreien Phase auf verschiedenen elektronischen Zählern registriert werden.
Gruppen von jeweils acht Tieren pro Dosis werden mit den Prüfsubstanzen, die in einem 1 %igen Tylose-Gel aufgeschwemmt sind, oral per Schlundsonde behandelt. Das Injektionsvolumen beträgt 5 ml/kg Körpergewicht. Die Prüfung in der obg. Testapparatur erfolgt 1 und 2 Std. nach Applikation der Prüfsubstanzen. Die Anzahl der Trinkrohr-Kontakte in der Reizstrom-Phase dient als Prüf-Variable. Die mittlere Anzahl der Kontakte in dieser Phase bei der Kontrollgruppe wird zu 100 % gesetzt und Zu- oder Abnahme der Kontaktzahl bei den mit Prüfsubstanz behandelten Tieren wird prozentual in Bezug auf die Kontrollgruppe ausgedrückt.
Anxiolytika bewirken in diesem Test gewöhnlich eine deutliche Zunahme der Wasseraufnahme (lickings) in der Reizstrom-Phase gegenüber den unbehandelten Kontrollen. Falls eine lineare oder logarithmische Beziehung zwischen Dosis und Wirkung gegeben ist, wird eine ED + 100 (d.i. die Dosis, die eine Zunahme der Wasseraufnahme um 100 % gegenüber der Kontrollgruppe bewirkt) mittels Regressionsanalyse errechnet. Ist eine lineare Dosisabhängigkeit nicht gegeben, so wird eine minimal effektive Dosis (MED) bestimmt, d.i. die niedrigste Dosis der Prüfsubstanz, die noch eine statistisch signifikante Zunahme der Wasseraufnahme im Vergleich zur Kontrollgruppe bewirkt (p=0,05, DUNNET-Test).

Assay [4] deals with Wistar Ratten. Put plainly: Geller-Seifter conflict test. It counts as in vivo, Ratte. As to conditions: for minimal effective dose: Rattus norvegicus, po, 0.5 h, p.o., 30 min before test, lowest dose with significant change of lever press rate, read-out: Geller Ratte MED.
Excerpt: as §2
4. Geller-Seifter-Konflikt-Test
Methode (Geller, I.und Seifter, J., Psychopharmacologia 1 (1962), 482):
Männliche Wistar Ratten aus eigener Aufzucht (SPF Hattersheim) im Gewicht zwischen 240 und 370 g werden verwendet und Versuchsgruppen zu je 8 Tieren zugeordnet. Je 4 Tiere werden in Plastikkäfigen (56x38x20 cm) zusammengesetzt und durch abgewogene Futtermengen auf ca. 80 % ihres normalen Körpergewichts gehalten.
Die Tiere werden trainiert, in einer SKINNER-Box eine Taste zu drücken, um eine Belohnung in Form von gesüßter Kondensmilch zu erhalten. Die Box enthält zwei Tasten mit Mikroschaltern, einen Lautsprecher, ein Hauslicht, zwei Signallichter über den Tasten sowie einen Fußboden aus Metallstäben. Das Trainingsschema wurde der Arbeit von GELLER und SEIFTER (1962) in der Modifikation von DAVIDSON & COOK (Psychopharmacologia 15 (1969), 159-168) entlehnt: Jede Sitzung besteht aus vier 15-Minuten-Abschnitten, die alle aus einer 12-minütigen "Variable Interval" (VI) Phase und einer 3-minütigen "Fixed ration" (FR) Phase zusammengesetzt sind. Während der VI-Phase erhalten die Tiere auf Tastendruck Milchbelohnungen in einem durch einen Zufallsgenerator gesteuerten Intervall von 10-110 sec. mit einem Mittelwert um 60 15 sec. Während der FR-Phase erhalten die Tiere für jeden Tastendruck eine Belohnung, zusätzlich wird jedoch bei jedem 3. Tastendruck ein schmerzhafter elektrischer Reiz über die Fussbodenstäbe verabreicht, um eine Konfliktsituation zu erzeugen. Die Stromstärke des elektrischen Reizes wird für jedes Tier individuell so eingestellt (0,3-0,6 mA), daß die Tastendruckrate in der gesamten FR-Phase zwischen 5 und 15 liegt.
Das Training findet an 5 Tagen in der Woche statt, Versuche mit Prüfsubstanzen werden einmal wöchentlich durchgeführt. Da die Tiere als ihre eigene Kontrolle dienen, werden vor jedem Versuch mit Prüfsubstanzen mindestens zwei Vorwerte ohne Prüfsubstanz durchgeführt. Die zu prüfenden Verbindungen werden in einem 1 %igen Tylose-Gel suspendiert und 30 min vor Testbeginn oral per Schlundsonde in einem Volumen von 2 ml/kg verabreicht. Veränderungen der Tastendruckrate in der VI-Phase werden als Beeinflussung der motorischen Aktivität und Steigerung der Tastendruckrate in der FR-Phase werden als Anzeichnen für eine "Antikonflikt-" bzw. "anxiolytische" Wirkung gewertet. Bestimmt wird meist die minimal effektive Dosis (MED) der Prüfsubstanz, d.i. die niedrigste geprüfte Dosis, die noch eine statistisch signifikante Änderung der Tastendruckrate bewirkt (p=0,05; WILCOXON matched pairs signed rank test).

As for `CC(C)(C)Nc1nc(NC(C)(C)C)nc(N2CCCCC2)n1` [Beispiel 1, 2,4-Bis-(tert.butylamino)-6-piperidino-1,3,5-triazin], the ED50 is 4.2 mg/kg in assay [1] and 32 mg/kg in assay [2]. The “Ptz Maus ED 50” value in assay [1] (60 min) was 2.1 mg/kg. In addition, the minimal effective dose amounted to 10 mg/kg in the assay on Wistar Ratten [3] and 3 mg/kg in the assay on Wistar Ratten [4]. Besides, the change in vivo at 10 mg/kg with Wistar Ratten [3] stood at 63%. The “Geller Ratte prozentuale Zunahme der angenommenen Belohnungen (Milch)” value is reported as 91% in the assay on Wistar Ratten [4] (3 mg/kg p.o.), 97% in the assay on Wistar Ratten [4] (10 mg/kg p.o.) and 382% in the assay with Wistar Ratten [4] (30 mg/kg p.o.).

Regarding `CC(C)(C)Nc1nc(NC(C)(C)C)nc(N2CCCC2)n1` [Beispiel 2, 2,4-Bis-(tert.butylamino)-6-pyrrolidino-1,3,5-triazin], the ED50 in assay [1] was found to be 2.4 mg/kg. Besides, the ED50 in assay [2] was found to be 30 mg/kg. Also, in the assay with Wistar Ratten [3], the minimal effective dose was determined as 10 mg/kg, the change in vivo at 10 mg/kg was determined as 61% and the change in vivo at 30 mg/kg came to 74%.

Regarding `CC(C)(C)Nc1nc(NN2CCCCC2)nc(NC(C)(C)C)n1` [Beispiel 3, 2,4-Bis-(tert.butylamino)-6-(piperidino-amino)-1,3,5-triazin], the ED50 in assay [1] amounted to 3.2 mg/kg. Besides, the ED50 in assay [2] is 30 mg/kg. Besides, in the assay with Wistar Ratten [3], the minimal effective dose was found to be 10 mg/kg, the change in vivo at 10 mg/kg came out at 75% and the change in vivo at 30 mg/kg was 87%.

Take `CC(C)(C)Nc1nc(NN2CCOCC2)nc(NC(C)(C)C)n1` [Beispiel 4, 2,4-Bis-(tert.butylamino)-6-(morpholino-amino)-1,3,5-triazin]: the ED50 in assay [1] turned out to be 8.3 mg/kg; in assay [2], 30 mg/kg. The figures for the minimal effective dose in the assay with Wistar Ratten [3] and with Wistar Ratten [4] were 10 mg/kg and 2.5 mg/kg, respectively. Besides, in the assay on Wistar Ratten [3], the change in vivo at 10 mg/kg was 82%. Also, the “Geller Ratte prozentuale Zunahme der angenommenen Belohnungen (Milch)” value in the assay on Wistar Ratten [4] (2,5 mg/kg p.o.) stood at 22%.

For `CC(C)(C)Nc1nc(NC(C)(C)C)nc(-n2ccnc2)n1` [Beispiel 5], the ED50 in assay [1] was determined as 12.2 mg/kg. In addition, in assay [2], the ED50 amounted to 30 mg/kg. In addition, in the assay on Wistar Ratten [3], the minimal effective dose came out at 30 mg/kg and the change in vivo at 30 mg/kg stood at 34%.

On to `CN(C)Nc1nc(NC(C)(C)C)nc(NC(C)(C)C)n1` [Beispiel 6, 2,4-Bis-(tert.butylamino)-6-(Nʹ-dimethylhydrazino)-1,3,5-triazin], for which the ED50 in assay [1] is 10 mg/kg; in assay [2], 20.7 mg/kg. Moreover, the minimal effective dose in the assay on Wistar Ratten [3] and with Wistar Ratten [4] was 10 mg/kg each time. In addition, the change in vivo at 10 mg/kg in the assay on Wistar Ratten [3] came to 103%.

In the case of `CCN(CC)c1nc(NC(C)(C)C)nc(NC(C)(C)C)n1` [Beispiel 7, 2,4-Bis-(tert.butylamino)-6-diethylamino-1,3,5-triazin], the ED50 is 6.9 mg/kg in assay [1] and 14.5 mg/kg in assay [2]. In addition, the minimal effective dose in the assay with Wistar Ratten [3] was determined as 30 mg/kg. In the assay on Wistar Ratten [3], the change in vivo at 30 mg/kg amounted to 101%.

In the case of `CC(C)Nc1nc(NC(C)(C)C)nc(NC(C)(C)C)n1` [Beispiel 8, 2,4-Bis-(tert.butylamino)-6-isopropylamino-1,3,5-triazin], the ED50 in assay [1] stood at 2.3 mg/kg; in assay [2] it was 46.6 mg/kg. The minimal effective dose in the assay on Wistar Ratten [3] and with Wistar Ratten [4] was 10 mg/kg each time. Besides, the change in vivo at 10 mg/kg in the assay on Wistar Ratten [3] came to 154%. The change in vivo at 30 mg/kg in the assay on Wistar Ratten [3] worked out at 230%. Besides, the “Geller Ratte prozentuale Zunahme der angenommenen Belohnungen (Milch)” value in the assay with Wistar Ratten [4] (10 mg/kg p.o.) turned out to be 76%; in the assay with Wistar Ratten [4] (30 mg/kg p.o.), 91%.

For the compound `CC(C)(C)Nc1nc(NC2CCCC2)nc(NC(C)(C)C)n1` [Beispiel 9, 2,4-Bis-(tert.butylamino)-6-cyclopentylamino-1,3,5-triazin], in assay [1], the ED50 was determined as 10.3 mg/kg. Also, in assay [2], the ED50 is 24.7 mg/kg. For the same compound, in the assay with Wistar Ratten [3], the minimal effective dose turned out to be 30 mg/kg and the change in vivo at 30 mg/kg is 68%.

On to `CC(C)C(C)Nc1nc(NC(C)(C)C)nc(NC(C)(C)C)n1` (stereo not drawn) [Beispiel 10, 2,4-Bis-(tert.-butylamino)-6-(1,2-dimethylpropylamino)-1,3,5-triazin], for which the ED50 in assay [1] amounted to 30 mg/kg. Also, the ED50 in assay [2] was 19.7 mg/kg. Also, in the assay with Wistar Ratten [3], the minimal effective dose is 30 mg/kg and the change in vivo at 30 mg/kg is 61%.
